The values below come from ChEMBL document CHEMBL1150065, “Isolation of picropolygamain from the resin of Bursera simaruba” (J Nat Prod, 1992).

In assay [1] the test system is HT-29. The experiment in a line: Cytotoxicity against human HT-29 cells. In kind it is functional.
The subject of assay [2] is MCF7. The experiment in a line: Cytotoxicity against human MCF7 cells. In kind it is functional.
The test system of assay [3] is A549. The assay is described as follows: Cytotoxicity against human A549 cells. In kind it is functional.
Assay [4] concerns Artemia. The assay is described as follows: Toxicity in brine shrimp. In kind it is organism-based.

The structures appear in SMILES notation.

In the case of `COc1cccc2c1C(=O)c1c(O)c3c(c(O)c1C2=O)C[C@@](O)(C(=O)CO)C[C@@H]3O[C@H]1C[C@H](N)[C@H](O)[C@H](C)O1` [DOXORUBICIN], the results for the ED50 in assay [1], in assay [2] and in assay [3] were 1.12 ×10⁻⁴ ug/ml, 1.05 ×10⁻⁴ ug/ml and 4.09 ×10⁻⁴ ug/ml, respectively.

In the case of `O=C1OC[C@@H]2Cc3cc4c(cc3[C@@H](c3ccc5c(c3)OCO5)[C@H]12)OCO4` [PICROPOLYGAMAIN], the EC50 in assay [1] (Homo sapiens, HT-29, read-out: ED50 (the source's name)) was < 0.01 µg/mL; in assay [2] (Homo sapiens, MCF7, read-out: ED50 (the source's name)), < 0.01 µg/mL; in assay [3] (Homo sapiens, A549, read-out: ED50 (the source's name)), < 0.01 µg/mL. Moreover, the IC50 in assay [4] stood at 52.2 ppm.
